Consider two compounds from patent publication US8722910B2, “Diyne compositions” (Evolva AG, priority 2009, dated 2014).

Converted amounts (≈) assume the structure as drawn. Read-outs that look alike come from different tables or passages of the source. Some results are limits rather than exact numbers.

The test system of one data set is C. guilliermondii. As to the kind of experiment: In vitro antifungal activity vs. yeasts (MIC/MFC). The data set is classed as cell-based. Particulars: Meyerozyma guilliermondii, C. guilliermondii (n = 1).
Data set [1] in a line: Solubility in water (incremental addition, 50° C.). It is filed as physicochemical. Particulars: 10 mg, water added up to 50 μl. As to the method:
Solubility in water was determined. This was carried out by transferring 10 mg of the material into 1.5 ml HPLC vials. Then 10 μl (1 vol) of water was added. The sample was then isothermally held at 50° C. with stirring for 30 mins. The process was continued up to 50 μl by 10 μl increments with heating to 50° C. in between.

For data set [2], the system named is Candida albicans. As to the kind of experiment: In vitro fungicidal activity vs. Candida albicans.
Another data set deals with Microsporum canis. The experiment in a line: In vitro antifungal activity vs. dermatophytes (MIC/MFC). The data set is classed as cell-based. As to conditions: Microsporum canis (n = 15).
Another data set deals with T. terrestre. Described as above. The data set is classed as cell-based. As to conditions: T. terrestre (n = 1).
The subject of a further data set is M. vanbreuseghemii. Described as above. The data set is classed as cell-based. As to conditions: M. vanbreuseghemii (n = 1).
A further data set deals with T. mentagrophytes. The description is as above. It is filed as cell-based. Particulars: T. mentagrophytes (n = 15).
In a further data set the test system is all Candida strains. The experiment in a line: MIC range over all Candida strains tested. It is filed as cell-based. As to conditions: Table 13 strains.
Data set [3] relates to Candida albicans. As to the kind of experiment: In vitro antifungal activity vs. yeasts (MIC/MFC). It is filed as cell-based. Particulars: Candida albicans (n = 8).
The next data set has as its system T. rubrum. The experiment in a line: In vitro antifungal activity vs. dermatophytes (MIC/MFC). The data set is classed as cell-based. As to conditions: T. rubrum (n = 15).
Data set [4] has as its system OLE1. The experiment in a line: OLE1 expression by real time PCR. Particulars: 250 ng/ml; 120 min; vs drug free control. It is filed as cell-based, C. albicans. As to the method:
Numbers indicate time intervals in minutes. Expression values are normalized to TUB1 and given as multiples of OLE1 expression at 10 minutes in ethanol.
Similarly, the expression of OLE1 in C. albicans was investigated in response to compound IV″. In the presence of 250 ng/ml Compound IV, OLE1 transcript levels were increased 4-fold after 120 min incubation time compared to the drug free control. […] Expression values are normalised to TUB1 and given as multiples of OLE1 expression at 10 minutes in ethanol.

Data set [5] has as its system OLE1. The experiment in a line: OLE1 expression by real time PCR. It is filed as cell-based, S. cerevisiae. As to the method:
The expression of OLE1 was determined by real time PCR 10, 60, 120 and 240 min after compound addition (Knechtle, P. and Greve, K., 2009). OLE1 transcript levels were calibrated to the expression of the tubulin gene (TUB1) and normalized to the OLE1 expression at 10 min without compound addition (FIG. 17(a)).
The expression of the OLE1 gene was determined by real time PCR 10, 60, 120 and 240 min for the conditions a.-e., as indicated in Table 3 above. OLE1 transcript levels were calibrated to the expression of the tubulin gene (TUB1) and normalized to the OLE1 expression at 10 min without compound addition. See FIG. 17a showing time dependent expressions of OLE1 in response to compound IV″. Conditions a.-e. are listed in Table 3 above, numbers indicate time intervals in minutes. Expressions of OLE1 are given as multiples of the expression at 10 min, condition a. […] 10 μg/ml oleic acid compensated for the OLE1 expression increase caused by 1 μg/ml compound IV alone. Compound IV″ dependent up-regulation of OLE1 expression thus confirms that compound IV″ is acting as an inhibitor of the Ole1 protein. The antagonistic effect of oleic acid found in the susceptibility assays, is reflected mechanistically in this experiment by a down-regulation of the target Ole1 protein through oleic acid.

Another data set relates to H. capsulatum. The experiment in a line: microbe, parasite or virus in culture. The data set is classed as cell-based.
The nature of data set [6]: Aqueous solubility (equilibrated 25° C., 24 hours, HPLC). It is filed as physicochemical. Particulars: water, thermodynamic from solid. As to the method:
The potassium salt was furthermore submitted to a solubility determination. Aqueous solubility was determined by suspending sufficient compound in water to give a maximum final concentration of ≧100 mg.m1-1 of the parent free-form of the compound. The suspension was equilibrated at 25° C. for 24 hours then the pH was measured. The suspension was then filtered through a glass fibre C filter into a 96 well plate. The filtrate was then diluted by a factor of 101. Quantification was by HPLC with reference to a standard solution of approximately 0.1 mg.ml-1. in DMSO. Different volumes of the standard, diluted and undiluted sample solutions were injected. The solubility was calculated using the peak areas determined by integration of the peak found at the same retention time as the principal peak in the standard injection. Analysis was performed on an Agilent HP1100 series system equipped with a diode array detector and using ChemStation software vB.02.01-SR1.

The next data set in a line: GVS moisture sorption. It is filed as physicochemical. As to conditions: 25° C. The protocol:
Sorption isotherms were obtained using a Hiden IGASorp moisture sorption analyser, controlled by CFRSorp software. The sample temperature was maintained at 25° C. by a Huber re-circulating water bath. The humidity was controlled by mixing streams of dry and wet nitrogen, with a total flow rate of 250 ml.min-1. The relative humidity (RH) was measured by a calibrated Vaisala RH probe (dynamic range of 0-95% RH), located near the sample. The weight change, (mass relaxation) of the sample as a function of % RH was constantly monitored by the microbalance (accuracy ±0.001 mg). Typically 10-20 mg of sample was placed in a tared mesh stainless steel basket under ambient conditions. The sample was loaded and unloaded at 40% RH and 25° C. (typical
room conditions). A moisture sorption isotherm was performed. The software uses a least squares minimisation procedure together with a model of the mass
relaxation, to predict an asymptotic value. The measured mass relaxation value must be within 5% of that predicted by the software, before the next % RH value is selected. The sample was recovered after completion of the isotherm and re-analysed by XRPD.

With `O=C(O)CCCCCCC/C=C\C#CC#Cc1ccco1` [Compound III″], the MFC in the data set on C. guilliermondii was 0.5 ng/mL (≈ 1.76 nM); in the data set with Microsporum canis, 0.5 ng/mL (≈ 1.76 nM); against T. terrestre, 16000 ng/mL (≈ 56300 nM); against M. vanbreuseghemii it was 16000 ng/mL (≈ 56300 nM); against T. mentagrophytes (Trichophyton mentagrophytes), 0.1 ng/mL (≈ 0.352 nM); against Candida albicans [3] it was less than 0.06 ng/mL. In the data set with T. rubrum (Trichophyton rubrum), this compound gave an MFC of less than 0.06 ng/mL. Moreover, the MIC is less than 0.06 ng/mL against C. guilliermondii (90% inhibition endpoint); less than 0.06 ng/mL with Microsporum canis (96 h, 35° C., 4 days); less than 0.06 ng/mL against T. terrestre (96 h, 35° C., 4 days); 30 ng/mL (≈ 106 nM) against M. vanbreuseghemii (96 h, 35° C., 4 days); less than 0.06 ng/mL with T. mentagrophytes (Trichophyton mentagrophytes, 96 h, 35° C., 4 days); less than 0.06 ng/mL with Candida albicans [3] (90% inhibition endpoint). In the data set with T. rubrum (Trichophyton rubrum, 96 h, 35° C., 4 days), this compound had an MIC of less than 0.06 ng/mL. Also, in data set [1], the solubility in water entry is “still did not dissolve”. Further, in the data set on Candida albicans [2] (Candida albicans), the “Fungicidal Concentration” value worked out at 0.4 ng/mL. The MIC90 with Candida albicans [2] (Candida albicans, 24 h, read-out: MIC90 24 h) is 0.4 ng/mL (≈ 1.41 nM); in the data set with Candida albicans [2] (Candida albicans, 48 h, read-out: MIC90 48 h), 0.4 ng/mL (≈ 1.41 nM). For the same compound, the remaining organisms in the data set on Candida albicans [2] (growth-negative samples after 24 hr incubation, subcultured) is reported as less than 5 cfu/ml. The “MIC90/MIC range 48 h” value against Microsporum canis (MIC90, 48 h) is less than 0.06 ng/mL; against T. terrestre (48 h), less than 0.06 ng/mL; with M. vanbreuseghemii (48 h), 30 ng/mL (≈ 106 nM); in the data set with T. mentagrophytes (MIC90, 48 h), less than 0.06 ng/mL; against T. rubrum (MIC90, 48 h), less than 0.06 ng/mL. Further, in the data set on all Candida strains, the “MIC range for all Candida strains” value was less than 0.06 to 4000 ng/mL.
On to `O=C([O-])CCCCCCC/C=C\C#CC#Cc1ccco1.[K+]` [Compound IV″, potassium (Z)-14-(furan-2-yl)tetradeca-9-en-11,13-diynoate], for which the “increase of OLE1 transcript levels” value in the data set with OLE1 [4] is given as 4 fold. Besides, the “increase of the expression level of OLE1” value in the data set on OLE1 [5] (1 μg/ml, 10-240 min) is listed as 3-5 fold; with OLE1 [5] (1 μg/ml, at 120 min), 4.9 fold; in the data set on OLE1 [5] (10 μg/ml, 10-240 min), 7-19 fold; in the data set with OLE1 [5] (10 μg/ml, at 120 min), 18.7 fold. In addition, in the data set with H. capsulatum (H. capsulatum (n = 20), MIC90, 48 h), the “MIC90/MIC range 48 h” value turned out to be 30 ng/mL. This compound also registered an MIC90 with H. capsulatum (Histoplasma capsulatum, 120 h) of 30 ng/mL. Further, the solubility at 24 h in data set [6] is more than 96.5 mg/mL. Besides, the moisture uptake behaviour result in the data set “GVS moisture sorption” (GVS) is recorded as “takes up very little moisture until it reaches approximately 70-80% RH”. Further, the “moisture uptake in weight” value in the data set “GVS moisture sorption” (at 90% RH) is recorded as 28%.
